Assay results: US6472563B1, “Formoterol tartrate process and polymorph” (Sepracor Inc., priority 2001, dated 2002)

Tests used:
[1] = factor; cited from earlier work
[2] = compared to other salts of R,R-formoterol; cited from earlier work
[3] = Dissolution studies: 17 wt % slurry in 50% aqueous isopropyl alcohol stirred with warming; type: physicochemical; details: listed as form A
Procedure: Dissolution studies were done on each polymorph. A 17 wt % slurry of the respective solid in 50% aqueous isopropyl alcohol was stirred with warming, and the temperature of dissolution was recorded.

In the case of `CCCCCCCCCCCCCCCC(=O)OC[C@@H](NC(=O)C(Cl)Cl)[C@H](O)c1ccc([N+](=O)[O-])cc1` [Chloramphenicol-3-palmitate], the “difference in bio-activity between form A and form B” value [1] is listed as “eight”.
For `COc1ccc(C[C@@H](C)NC[C@H](O)c2ccc(O)c(NC=O)c2)cc1.O=C(O)C(O)C(O)C(=O)O` [L-(+)-tartrate salt of R,R-formoterol, (R,R)-formoterol L-tartrate], the hygroscopicity [2] is listed as “non-hygroscopic”.
For `COc1ccc(C[C@@H](C)NC[C@H](O)c2ccc(O)c(NC=O)c2)cc1.O=C(O)C(O)C(O)C(=O)O` [Polymorph A, (R,R)-formoterol L-tartrate], the temperature of dissolution [3] was 65-70 °C.
